The numbers were not newly measured in patent publication US20070184116A1, “Pharmaceutical formulation containing unmilled flutamide” (priority 2004, published 2007), which cites them from elsewhere.

Take `CC(C)C(=O)Nc1ccc([N+](=O)[O-])c(C(F)(F)F)c1` [Flutamide, 2-methyl-N-[4-nitro-3-(trifluoromethyl)phenyl]propanamide]: the “solubility in acid medium” value (acid medium, for example 0.1% hydrochloric acid (pH corresponds to gastric juice)) is recorded as “virtually insoluble”. Moreover, the solubility in water entry (water) was “virtually insoluble”.
